Results taken from ChEMBL document CHEMBL1156216, “Amide-based inhibitors of p38alpha MAP kinase. Part 2: design, synthesis and SAR of potent N-pyrimidyl amides” (Bioorg Med Chem Lett, 2010).

How the values were obtained:
[1] = biological target: Mitogen-activated protein kinase 14 (Homo sapiens, UniProt Q16539); assay: Inhibition of human p38alpha assessed as gamma-[32P]ATP incorporation after 60 mins by scintillation counting
Cytochrome P450 3A4 = Cytochrome P450 3A4 (Homo sapiens, UniProt P08684); assay: Inhibition of CYP3A4 after 30 mins by fluorescence assay; assay type: ADME; conditions: read-out: INH
Sequence of Cytochrome P450 3A4 (P08684 whole entry): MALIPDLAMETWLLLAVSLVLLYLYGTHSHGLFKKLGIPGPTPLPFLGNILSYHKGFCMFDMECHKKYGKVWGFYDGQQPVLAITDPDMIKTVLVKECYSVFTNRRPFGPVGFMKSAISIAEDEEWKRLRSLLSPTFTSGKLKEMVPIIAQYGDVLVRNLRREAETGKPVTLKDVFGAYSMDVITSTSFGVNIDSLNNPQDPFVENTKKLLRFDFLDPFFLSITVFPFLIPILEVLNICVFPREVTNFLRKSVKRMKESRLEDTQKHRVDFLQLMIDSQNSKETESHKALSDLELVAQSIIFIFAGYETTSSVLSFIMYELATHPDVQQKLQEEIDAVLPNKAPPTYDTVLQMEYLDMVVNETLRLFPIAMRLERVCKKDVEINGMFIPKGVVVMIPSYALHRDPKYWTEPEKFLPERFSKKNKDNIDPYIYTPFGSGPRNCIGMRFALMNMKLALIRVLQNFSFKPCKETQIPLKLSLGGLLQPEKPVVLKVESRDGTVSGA

Blood = assay: Antiinflammatory activity against LPS-induced TNFalpha production in human diluted whole blood administered 15 mins before LPS treatment after 2 hrs by ELISA; assay type: functional, tissue-based

Sequence of Mitogen-activated protein kinase 14 (Q16539 whole entry): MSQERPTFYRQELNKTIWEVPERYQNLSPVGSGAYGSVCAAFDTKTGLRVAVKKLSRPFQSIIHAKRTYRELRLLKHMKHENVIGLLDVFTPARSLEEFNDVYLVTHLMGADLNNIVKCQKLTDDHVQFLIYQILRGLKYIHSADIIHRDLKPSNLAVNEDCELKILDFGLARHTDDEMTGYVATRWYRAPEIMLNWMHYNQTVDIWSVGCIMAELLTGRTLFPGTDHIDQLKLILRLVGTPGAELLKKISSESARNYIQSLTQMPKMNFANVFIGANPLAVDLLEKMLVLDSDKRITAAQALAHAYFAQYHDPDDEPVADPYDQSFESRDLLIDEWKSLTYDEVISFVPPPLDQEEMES

| IC50 [1] [nM] | IC50 (Blood) [nM] | Compound | IC50 (Cytochrome P450 3A4) [nM] |
| --- | --- | --- | --- |
| 17 | 90 | CC(C)Nc1nccc(N(CCCCN)C(=O)c2ccc3c(c2)CCO3)n1 | 3120 |
| 165 | 704 | C[C@H](Nc1nccc(N(CC2CC2)C(=O)c2ccc3c(c2)CCO3)n1)c1ccccc1 | – |
| 345 | > 10000 | COCCN(C(=O)c1ccc2c(c1)CCO2)c1ccnc(N[C@@H](C)c2ccccc2)n1 | – |
| 26 | 58 | CCN(C(=O)c1cc(C)ccc1F)c1ccnc(N[C@@H](C)c2ccccc2)n1 | – |
| 154 | > 10000 | CCN(C(=O)c1cn(C)c2ccccc12)c1ccnc(N[C@@H](C)c2ccccc2)n1 | – |
| 179 | > 10000 | CCN(C(=O)c1cc2ccccc2o1)c1ccnc(N[C@@H](C)c2ccccc2)n1 | – |
| 90 | 829 | CCN(C(=O)c1cccc2c1OCC2)c1ccnc(N[C@@H](C)c2ccccc2)n1 | – |
| 180 | > 1000 | CCN(C(=O)c1ccc2c(c1)CCCC2)c1ccnc(N[C@@H](C)c2ccccc2)n1 | – |
| 13 | 140 | CCN(C(=O)c1cccc(C)c1)c1ccnc(N[C@@H](C)c2ccccc2)n1 | – |
| 91 | 143 | CCN(C(=O)c1ccc(C)c(C)c1)c1ccnc(N[C@@H](C)c2ccccc2)n1 | – |
| 81 | 400 | CCN(C(=O)c1cccc(C)c1C)c1ccnc(N[C@@H](C)c2ccccc2)n1 | – |
| 104 | 349 | CCN(C(=O)c1cccc(C2CC2)c1)c1ccnc(N[C@@H](C)c2ccccc2)n1 | – |
| 267 | > 1000 | CCN(C(=O)c1ccccc1Cl)c1ccnc(N[C@@H](C)c2ccccc2)n1 | – |
| 17 | 387 | CCN(C(=O)c1ccc2c(c1)CCO2)c1ccnc(N[C@@H](C)c2ccccc2)n1 | – |
| 71 | 313 | CCN(C(=O)c1ccc2occc2c1)c1ccnc(N[C@@H](C)c2ccccc2)n1 | – |
| 64 | > 1000 | CCN(C(=O)c1cccc(C(F)(F)F)c1)c1ccnc(N[C@@H](C)c2ccccc2)n1 | – |
| 673 | > 10000 | C[C@H](Nc1nccc(N(CC2CCN(S(N)(=O)=O)CC2)C(=O)c2ccc3c(c2)CCO3)n1)c1ccccc1 | – |
| > 10000 | – | C[C@H](Nc1nccc(N(CCCN)C(=O)c2ccc3c(c2)CCO3)n1)c1ccccc1 | – |
| 96 | 130 | C[C@H](Nc1nccc(N(CCCCO)C(=O)c2ccc3c(c2)CCO3)n1)c1ccccc1 | – |
| > 10000 | – | C[C@H](Nc1nccc(N(CC2CCCCN2)C(=O)c2ccc3c(c2)CCO3)n1)c1ccccc1 (stereo partly drawn) | – |
| 72 | 564 | C[C@H](Nc1nccc(N(CCCS(C)(=O)=O)C(=O)c2ccc3c(c2)CCO3)n1)c1ccccc1 | – |

Second part, the molecule before the results:

| Compound | IC50 [1] [nM] | IC50 (Blood) [nM] | IC50 (Cytochrome P450 3A4) [nM] |
| --- | --- | --- | --- |
| C[C@H](Nc1nccc(N(CC2CCNCC2)C(=O)c2ccc3c(c2)CCO3)n1)c1ccccc1 | 54 | 15 | 94 |
| C[C@H](Nc1nccc(N(CC2CCCNC2)C(=O)c2ccc3c(c2)CCO3)n1)c1ccccc1 (stereo partly drawn) | > 10000 | – | – |
| C[C@H](Nc1nccc(N(CC2CCN(C(N)=O)CC2)C(=O)c2ccc3c(c2)CCO3)n1)c1ccccc1 | 711 | 524 | – |
| CC(C)CN(C(=O)c1ccc2c(c1)CCO2)c1ccnc(N[C@@H](C)c2ccccc2)n1 | 462 | 2090 | – |
| C[C@H](Nc1nccc(N(CC2CCOCC2)C(=O)c2ccc3c(c2)CCO3)n1)c1ccccc1 | 158 | > 10000 | – |
| CCN(C(=O)c1ccc(F)c(C)c1)c1ccnc(N[C@@H](C)c2ccccc2)n1 | 39 | 178 | – |
| O=C(c1ccc2c(c1)CCO2)N(CC1CCNCC1)c1ccnc(NC2CCC(O)CC2)n1 (stereo not drawn) | 360 | 3290 | > 20000 |
| NC1CCC(Nc2nccc(N(CC3CCNCC3)C(=O)c3ccc4c(c3)CCO4)n2)CC1 (stereo not drawn) | 400 | > 10000 | > 20000 |
| CCN(C(=O)c1ccc2ccccc2c1)c1ccnc(N[C@@H](C)c2ccccc2)c1 | – | > 1000 | – |
| CCN(C(=O)c1ccc2c(c1)CCC2)c1ccnc(N[C@@H](C)c2ccccc2)n1 | 45 | 300 | – |
| COC[C@H](C)Nc1nccc(N(CC2CCNCC2)C(=O)c2ccc3c(c2)CCO3)n1 | 316 | 460 | 2020 |
| C[C@@H](CO)Nc1nccc(N(CCCCN)C(=O)c2ccc3c(c2)CCO3)n1 | 310 | 2940 | 11700 |
| NCCCCN(C(=O)c1ccc2c(c1)CCO2)c1ccnc(NC2CCC(O)CC2)n1 (stereo not drawn) | 11 | 865 | > 20000 |
| COC[C@H](C)Nc1nccc(N(CCCCN)C(=O)c2ccc3c(c2)CCO3)n1 | 25 | 48 | 2650 |
| CC(C)(CO)Nc1nccc(N(CC2CCNCC2)C(=O)c2ccc3c(c2)CCO3)n1 | 3040 | > 10000 | 1540 |
| CCC(COC)Nc1nccc(N(CC2CCNCC2)C(=O)c2ccc3c(c2)CCO3)n1 (stereo not drawn) | 530 | 112 | 367 |
| O=C(c1ccc2c(c1)CCO2)N(CC1CCNCC1)c1ccnc(NC2CC2)n1 | 600 | 50 | 340 |
| CCN(C(=O)c1cccc(Cl)c1)c1ccnc(N[C@@H](C)c2ccccc2)n1 | 81 | 533 | – |
| CCN(C(=O)c1ccc(Cl)cc1)c1ccnc(N[C@@H](C)c2ccccc2)n1 | 313 | > 10000 | – |
| CCc1cccc(C(=O)N(CC)c2ccnc(N[C@@H](C)c3ccccc3)n2)c1 | 65 | 152 | – |
| CCN(C(=O)c1ccc2c(c1)OCO2)c1ccnc(N[C@@H](C)c2ccccc2)n1 | 164 | > 1000 | – |
| CCN(C(=O)c1ccccc1)c1ccnc(N[C@@H](C)c2ccccc2)n1 | 193 | > 10000 | – |
| CCN(C(=O)c1ccc2ccccc2c1)c1ccnc(N[C@@H](C)c2ccccc2)n1 | 64 | 187 | – |
| CCN(C(=O)c1csc2ccccc12)c1ccnc(N[C@@H](C)c2ccccc2)n1 | 188 | > 1000 | – |
| C[C@H](Nc1nccc(N(CCCCN)C(=O)c2ccc3c(c2)CCO3)n1)c1ccccc1 | 4 | 9 | 180 |
| CC(C)Nc1nccc(N(CC2CCNCC2)C(=O)c2ccc3c(c2)CCO3)n1 | 24 | 88 | 2900 |
